Data set [1] deals with ARPE-19 cells. The data set can be described thus: CellTiter-Glo assay (ATP). Type of data set: cell-based, human. The settings on record: 1 mM pretreatment, then 500 μM HQ for 3, 6 and 8 hours. The protocol: ARPE-19 cells were grown in white 96 well plates. The cells were first exposed to 500 μM of HQ for 3, 6 and 8 hours and the amount of ATP produced was measured using the CellTiter-Glo assay kit to obtain a time dependent response (FIG. 15). […] Due to the mitochondrial damage caused by HQ, the production of ATP was decreased.
Background: ATP-based viability assays read luminescence as a measure of living cells.

The subject of data set [2] is ARPE-19 cells. As to the kind of experiment: JC-1 assay (mitochondrial membrane potential). It counts as cell-based, human. The settings on record: 1 mM pretreatment for 1 hour, then 50 μM HQ for 4 hours. The method, then: JC-1 assays measuring the change in mitochondrial membrane potential were carried out to evaluate the protection of the NAC alkyl-ester analogues towards mitochondrial damage.
Typically, JC-1 dye has an inherent green fluorescence at 530 nm. Upon reaching the cell, due to the structural properties of the dye, it will accumulate in the mitochondria making aggregates known as J-aggregates. These J-aggregates consists of a red shifted fluorescence (590 nm). Damaged or unhealthy mitochondria, due to their depolarized membrane potential (compared to healthy ones), will have lesser amounts of aggregates and thus will have low intensity of red emission. Cells with healthy mitochondria will have a more prominent red fluorescence than that in cells with damaged/unhealthy mitochondria due to the ability in forming J-aggregates.
ARPE-19 cells were grown in black, clear bottom 96 well plates. […] With increasing time and dose of HQ, a drop in 590 nm/530 nm fluorescence is seen due to the depolarization of the mitochondria.
Next, to assess the effect of NAC alkyl-ester analogues on oxidative damage in mitochondria (FIG. 12B), ARPE-19 cells were pretreated with 1 mM NAC, NAC alkyl-ester analogues, NACA, GSH-EE and 1 μM MitoQ for 1 and 24 hours. […] The JC-1 solution was removed and washed once with PBS and fluorescence measurements were obtained in PBS at 485 nm excitation and emission at 535 nm and 590 nm. […]

Data set [3] deals with mitochondria isolated from ARPE-19 cells. The data set can be described thus: Mitochondrial GSH assay. The settings on record: 1 mM for 24 hours; compared to NAC and ARPE-19 cells. Type of data set: cell-based, human. The protocol: A GSH assay was carried out for isolated mitochondria to study the mechanism of action of the NAC alkyl-ester analogues in protecting mitochondria. ARPE-19 cells were grown in 6 well plates until 100% confluent in MEM-NIC media. The cells were exposed to 3 mL of 1 mM solutions of NAC and NACBE for 24 hours. The solutions were removed and washed with 3 mL of HBSS before adding 1 mL of 0.25% Trypsin-EDTA and incubating for 10 minutes. 2 mL of DMEM:F-12 supplemented with 10% FBS was added to each well, harvested and centrifuged at 300 rcf for 5 minutes. The supernatant was removed and cell pellet was resuspended in 2 mL of isolation buffer (0.25 M sucrose and 10 mM HEPES).
Cells were disrupted using a probe sonicator (Misonix 5-3000) for 10 seconds in ice. Subsequently, intact cells and debris were removed by centrifuging at 1000 g for 10 mins. Supernatant was collected, and centrifuged at 20,000 g for 25 minutes. Pellet containing mitochondria were saved and washed using 0.5 mL of isolation buffer. After centrifuging at 20,000 g for 25 minutes the mitochondrial pellet was resuspended in 50 μL of HBSS. 25 μL was used to determine total GSH and GSSG and 25 μL was used to determine GSSG levels. GSH assay was then carried out according to manufacturer recommended protocol (Promega GSH/GSSG-Glo™) and luminescence readings were obtained.

Data set [4] concerns ARPE-19 cells. The data set can be described thus: HPLC analysis of cellular uptake and conversion to NAC. Type of data set: in vitro ADME, human. The settings on record: 1 mM for 1 hour in HBSS. The method, then: ARPE-19 cells were seeded onto a 60 cm^2 dish and was allowed to grow to confluency. The cells were treated with 1 mM NAC and NACBE for 1 hour in HBSS. The drug solution was aspirated and washed twice with HBSS. The cells were scraped with the aid of methanol (˜1 mL) and collected into 2 mL centrifuge tubes. The cell suspension in methanol was sonicated (for cell lysis) in a water bath for 30 minutes and was centrifuged at 14,000 RPM for 15 minutes. The supernatant was transferred to a HPLC vial and methanol was evaporated under a stream of nitrogen.
The sample was resuspended in 50 μL of methanol before injecting into the HPLC system. Samples and standard (20 μL) were injected with an autosampler. Separation was conducted by 0.8 mL/min gradient elution with a water/0.10% formic acid and acetonitrile mobile phase on a 250×4.6-mm ([…]) C18 column (Restek, Pinnacle II) maintained at 25° C. The samples were monitored at 205 nm with a UV detector and analyzed with Agilent Chemstation software.

Entries after “also recorded” stand apart in the source; their conditions may differ.

As to `CCCCOC(=O)[C@H](CS)NC(C)=O` [NACBE, N-acetylcysteine butyl ester], the “ATP production after HQ insult” value in data set [1] is “ATP production remained unaltered”. The “protection towards mitochondrial damage (JC-1)” value in data set [2] was “improved protection towards mitochondrial damage”. In data set [3], the “mitochondrial GSH level (luminescence intensity)” value is “increase in the luminescence intensity”. Moreover, in data set [4], the “compound and metabolite detected within the cells by HPLC” value was “both NACBE (prodrug) and NAC (metabolite) within the cells; also recorded: taken up by the cells more effectively than NAC”.

(Values after patent publication US20220409526A1 (Retina Foundation Of The Southwest, priority 2019, published 2022).)
